Source: patent US11208400B2, “Substituted 6-(1H-pyrazol-1-yl)pyrimidin-4-amine derivatives and uses thereof” (Bayer Aktiengesellschaft, priority 2016, dated 2021)

Molecular target: T1, human Npt2a (Homo sapiens, UniProt Q06495)
T1 construct: expressed in transfected cells
T1 sequence (Q06495 1-639): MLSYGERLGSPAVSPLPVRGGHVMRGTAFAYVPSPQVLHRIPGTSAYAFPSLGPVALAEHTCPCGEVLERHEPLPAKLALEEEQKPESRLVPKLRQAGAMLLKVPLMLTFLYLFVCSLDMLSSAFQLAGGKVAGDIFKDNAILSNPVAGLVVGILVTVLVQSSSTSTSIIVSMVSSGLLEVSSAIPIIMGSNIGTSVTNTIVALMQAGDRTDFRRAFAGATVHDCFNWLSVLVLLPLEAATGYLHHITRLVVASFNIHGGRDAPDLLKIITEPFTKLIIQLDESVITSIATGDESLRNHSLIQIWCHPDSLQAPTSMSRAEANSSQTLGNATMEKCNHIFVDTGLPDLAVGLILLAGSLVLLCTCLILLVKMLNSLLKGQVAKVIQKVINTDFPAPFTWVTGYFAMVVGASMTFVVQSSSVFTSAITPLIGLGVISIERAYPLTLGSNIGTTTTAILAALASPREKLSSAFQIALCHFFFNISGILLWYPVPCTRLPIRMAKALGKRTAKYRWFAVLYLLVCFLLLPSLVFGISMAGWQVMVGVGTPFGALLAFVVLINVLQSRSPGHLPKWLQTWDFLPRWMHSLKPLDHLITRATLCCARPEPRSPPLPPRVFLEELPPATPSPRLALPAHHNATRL
Test: Npt2a activity cell based assay, membrane potential dye, CHO T-REx hNpt2a cells
Settings: doxycycline-induced, depolarization by sodium phosphate influx, average or median values if tested more than once
Summary of the method: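 Doxycycline-induced (0.5 μg/mL, 24 h) CHO T-REx cells were loaded with membrane potential dye in sodium-free NHE buffer (pH 7.4) and exposed to compound (50 μM–1 nM, 5 min, room temperature).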

SMILES | IC50
Cc1cc(C)n(-c2cc(Nc3c(C)c(-c4ccc(F)cc4)nn3CC(O)C3CC3)ncn2)n1 (single isomer, unassigned) [Example 370, 1-cyclopropyl-2-[5-{[6-(3,5-dimethyl-1H-pyrazol-1-yl)pyrimidin-4-yl]amino}-3-(4-fluorophenyl)-4-methyl-1H-pyrazol-1-yl]ethanol] | 2400 nM
Cc1cc(C(F)F)n(-c2cc(Nc3c(C)c(-c4ccc(OC(F)(F)F)cc4)nn3CC3CC3)ncn2)n1 [Example 309, N-{1-(cyclopropylmethyl)-4-methyl-3-[4-(trifluoromethoxy)phenyl]-1H-pyrazol-5-yl}-6-[5-(difluoromethyl)-3-methyl-1H-pyrazol-1-yl]pyrimidin-4-amine] | 44 nM
Cc1nn(-c2cc(Nc3c(Cl)c(-c4ccc(F)cc4)nn3CC3CC3)ncn2)c2cnccc12 [Example 218, N-[4-chloro-1-(cyclopropylmethyl)-3-(4-fluorophenyl)-1H-pyrazol-5-yl]-6-(3-methyl-1H-pyrazolo[3,4-c]pyridin-1-yl)pyrimidin-4-amine] | 32 nM
CCc1c(-c2ccc(F)cc2)nn(CC2CC2)c1Nc1cc(-n2nc(C)c(Cl)c2C)ncn1 [Example 115, 6-(4-chloro-3,5-dimethyl-1H-pyrazol-1-yl)-N-[1-(cyclopropylmethyl)-4-ethyl-3-(4-fluorophenyl)-1H-pyrazol-5-yl]pyrimidin-4-amine] | < 1.6 nM
CCc1c(-c2ccc(F)cc2)nn(Cc2nnnn2C)c1Nc1cc(-n2nc(C)cc2C)ncn1 [Example 391, 6-(3,5-dimethyl-1H-pyrazol-1-yl)-N-{4-ethyl-3-(4-fluorophenyl)-1-[(1-methyl-1H-tetrazol-5-yl)methyl]-1H-pyrazol-5-yl}pyrimidin-4-amine] | 13 nM
CCc1c(Nc2cc(-n3nc(C)c(C(=O)N4CCCC4C)c3C)ncn2)nn(C)c1-c1ccc(F)cc1 (single isomer, unassigned) [Example 107, [1-ent-(6-{[4-ethyl-5-(4-fluorophenyl)-1-methyl-1H-pyrazol-3-yl]amino}pyrimidin-4-yl)-3,5-dimethyl-1H-pyrazol-4-yl](2-methylpyrrolidin-1-yl)methanone] | 293 nM
CCc1c(Nc2cc(-n3nc(C)c(Cl)c3C)ncn2)nn(CC(F)F)c1-c1ccc(F)cc1 [Example 174, 6-(4-chloro-3,5-dimethyl-1H-pyrazol-1-yl)-N-[1-(2,2-difluoroethyl)-4-ethyl-5-(4-fluorophenyl)-1H-pyrazol-3-yl]pyrimidin-4-amine] | 33 nM
Cc1nn(-c2cc(Nc3c(C)c(-c4ccc(F)cc4)nn3CC3CC3)ncn2)c(C)c1CC1(O)CC1 [Example 287, 1-{[1-(6-{[1-(cyclopropylmethyl)-3-(4-fluorophenyl)-4-methyl-1H-pyrazol-5-yl]amino}pyrimidin-4-yl)-3,5-dimethyl-1H-pyrazol-4-yl]methyl}cyclopropanol] | 5 nM
COC(C)c1c(C)nn(-c2cc(Nc3nn(C)c(-c4ccc(F)cc4)c3C)ncn2)c1C (single isomer, unassigned) [Example 344, N-[5-(4-fluorophenyl)-1,4-dimethyl-1H-pyrazol-3-yl]-6-{4-[1-methoxyethyl]-3,5-dimethyl-1H-pyrazol-1-yl}pyrimidin-4-amine] | 5 nM
CCc1c(Nc2cc(-n3nc(CO)cc3C)ncn2)nn(C)c1-c1ccc(F)cc1 [Example 94, [1-(6-{[4-ethyl-5-(4-fluorophenyl)-1-methyl-1H-pyrazol-3-yl]amino}pyrimidin-4-yl)-5-methyl-1H-pyrazol-3-yl]methanol] | 2500 nM
COCCn1nc(-c2ccc(C#N)cc2)c(C)c1Nc1cc(-n2nc(C)cc2C(F)F)ncn1 [Example 554, 4-[5-({6-[5-(difluoromethyl)-3-methyl-1H-pyrazol-1-yl]pyrimidin-4-yl}amino)-1-(2-methoxyethyl)-4-methyl-1H-pyrazol-3-yl]benzonitrile] | 1.9 nM
Cc1cc(C)n(-c2cc(Nc3nn(C)c(-c4ccc(F)cc4F)c3Cl)ncn2)n1 [Example 55, N-[4-chloro-5-(2,4-difluorophenyl)-1-methyl-1H-pyrazol-3-yl]-6-(3,5-dimethyl-1H-pyrazol-1-yl)pyrimidin-4-amine] | 133 nM
